Data: patent publication US8883754B2, “Method for inhibiting angiogenesis” (Ewha University—Industry Collaboration Foundation, priority 2009, dated 2014)
Like-named read-outs stand apart in the source and are kept apart here.

Experiments:
[1] = tested on: VEGF-VEGFR-2 signaling; details: for VEGFR-2 activation in response to VEGF in Prx II knockdown cells: HAECs with Prx II knockdown
Excerpt: Sequences of the four siRNA duplexes for human Prx II were 5′-[…]-3′ (#1, SEQ ID NO. 1), 5′-[…]-3′ (#2, SEQ ID NO. 2), 5′-[…]-3′ (#3, SEQ ID NO. 3) and 5′-[…]-3′ (#4, SEQ ID NO. 4). The Prx II siRNA duplex #1 was mainly used for the study. Sequences of the four siRNA duplexes for human Prx I were 5′-[…]-3′ (#1, SEQ ID NO. 5), 5′-[…]-3′ (#2, SEQ ID NO. 6), 5′-[…]-3′ (#3, SEQ ID NO. 7) and 5′-[…]-3′ (#4, SEQ ID NO. 8); those for human GPxl, 5′-[…]-3′ (#1, SEQ ID NO. 9), 5′-[…]-3′ (#2, SEQ ID NO. 10), 5′-[…]-3′ (#3, SEQ ID NO. 11) and 5′-[…]-3′ (#4, SEQ ID NO. 12). A Prx III-specific siRNA was previously described in Chang, T. S. et al., (J Biol Chem 2004 279 (40), 41975-41984). The firefly luciferase siRNA were purchased or synthesized from Dharmacon. SiRNA duplexes for human VEGFR-1 (Cat No. sc-29319), VEGFR-2 (Cat No. sc-29318), and Prx IV (Cat. No. sc-40835) was purchased from Santa Cruz Biotechnology. The sequence of siRNA specific to human NOX4 was 5′-[…]-3′ (SEQ ID NO. 13). Human caveolin-1 siRNA, 5′-[…]-3′ (SEQ ID NO. 14) was purchased from Qiagen. Unless otherwise stated, the endothelial cells (ECs) were transfected with the siRNA duplexes for 24 hrs using lipofectamine RNAi MAXTM (Invitrogen). Then, the cells were serum-starved for an additional 18 hrs in media containing 0.5% fetal bovine serum before VEGF stimulation.
(§1) For immunoblotting, cell lysates or the immunoprecipitates were mixed with 5× Laemmli sample buffer and boiled for 5 minutes. The samples were separated on a SDS denaturing gel and then electrophoretically transferred onto nitrocellulose membranes, which were subsequently subjected to immunoblotting. In order to block non-specific binding, the membrane was reacted with TBS (Tris-buffered saline; TBST) containing 0.5% Tween-20 and 5% nonfat milk at room temperature for 1 hour. The above described blots were reacted with each primary antibody in TBST containing 5% nonfat milk or BSA at 4° C. for overnight. After washing with TBST, the blots were reacted with horseradish peroxidase-conjugated goat anti-mouse immunoglobulin (IgG; 1:5000 dilution) or goat anti-rabbit IgG (1:3000 dilution) at room temperature for 45 minutes. Protein bands were detected using an Amersham ECLTM detection system (GE healthcare). When necessary, the membranes were stripped by shaking them for 60 minutes at 37° C. in 67 mM Tris (pH 6.7), 2% SDS, 100 mM 2-mercaptoethanol and reprobed. with the appropriate pan antibody.

[2] = molecular target: T1, VEGFR-2 RTK (Homo sapiens, UniProt P35968); assay: VEGFR-2 in vitro kinase assay on immunoprecipitates; format: cell-based
T1 construct: The VEGFR-2 was immunoprecipitated from Prx II siRNA-transfected or H2O2 (100 μM)-pretreated HAECs; endogenous in cells; host or cells: HAECs (human aortic endothelial cells)
Description: At the appropriate time, the culture media were aspirated and cells were lysed in extraction buffer (TEB) containing 20 mM Hepes (pH 7.0), 1% Triton X-100, 150 mM NaCl, 10% glycerol, 1 mM EDTA, 2 mM EGTA, 1 mM DTT, 5 mM Na3VO4, 5 mM NaF, 1 mM AEBSF, aprotinin (5 μg/mL), and leupeptin (5 μg/mL). After brief centrifugation, the protein content of samples was quantified using the Bradford reagent (Bio-Rad). For immunoprecipitation, the resulting supernatants (120 μg proteins) were pre-cleaned with 10 μL of protein-A/G Sepharose 4 Fast Flow beads (Amersham Biosciences) for 1 hr, incubated overnight with 2 μg of the indicated antibodies, and further incubated at 4° C. for 3 hrs with 20 μL of protein-A/G Sepharose beads. Immunocomplexes were washed three times with 1 mL of TEB and then subjected to either in vitro kinase assay or immunoblotting.
The in vitro kinase assay was done as previously described in Choi, M. H. et al., (Nature 2005 435 (7040), 347-353). Briefly, the immunocomplexes precipitated with rabbit anti-flk-1(sc-504) antibody were incubated with 30 μL of kinase buffer (20 mM HEPES pH 7.5, 20 mM MgCl2, 20 mM β-glycerophosphate, and 200 μM Na3VO4) containing […] of γ-^32[P]-ATP and 0.5 μg GST-PLCγ1 at 30° C. for 10 minutes. The reaction was stopped by the addition of a SDS sample buffer. The samples were then boiled and separated on SDS denaturing gel. […]

[3] = tested on: 2-cys Prxs; details: HAECs
Description: as §1

[4] = tested on: HAECs; assay: VEGF-induced tube formation on Matrigel; format: cell-based, human; details: HAECs expressing mVEGFR-2 WT or C1206S; 1 μM pretreated for 1 hr before VEGF
Description: For tube formation, the HAECs (50,000 cells/well) were placed on 12-well culture dishes coated with growth factor-reduced Matrigel matrix (BD Bioscience, cat #354230). Cells were cultured for 18 hrs in the EBM-2 media containing 0.5% serum medium in the presence or absence of VEGF-A (25 ng/mL). Thereafter, the cell images were taken from five random visual fields per sample and the total length of the tubes were quantitatively analyzed using an Image-Pro Plus version 6.2 (Media Cybernetics).

[5] = tested on: intracellular ROS (H2O2) level in HAECs; assay: Detection and measurement of reactive oxygen species (CM-H2DCFDA, DCF fluorescence); format: cell-based, human; details: for level of ROS/H2O2 elevated by the Prx II knockdown: HAECs with Prx II knockdown
Description: HAECs were rinsed with Endothelial Basal Medium without phenol red (EBM, Lonza) and immediately incubated with 5 μM 5,6-chloromethyl-2′,7′-dichlorodihydrofluorescein diacetate (CM-H2DCFDA) (Molecular Probe) at 37° C. for 5 minutes. After briefly washing the cell with EBM, the fluorescence images were taken by fluorescence microscope (Axiovert 200 Basic standard, Zeiss, Germany). The relative DCF fluorescence was calculated by averaging the levels of fluorescence from 50-80 cells after subtracting the background fluorescence.

T1 sequence (P35968 20-1356): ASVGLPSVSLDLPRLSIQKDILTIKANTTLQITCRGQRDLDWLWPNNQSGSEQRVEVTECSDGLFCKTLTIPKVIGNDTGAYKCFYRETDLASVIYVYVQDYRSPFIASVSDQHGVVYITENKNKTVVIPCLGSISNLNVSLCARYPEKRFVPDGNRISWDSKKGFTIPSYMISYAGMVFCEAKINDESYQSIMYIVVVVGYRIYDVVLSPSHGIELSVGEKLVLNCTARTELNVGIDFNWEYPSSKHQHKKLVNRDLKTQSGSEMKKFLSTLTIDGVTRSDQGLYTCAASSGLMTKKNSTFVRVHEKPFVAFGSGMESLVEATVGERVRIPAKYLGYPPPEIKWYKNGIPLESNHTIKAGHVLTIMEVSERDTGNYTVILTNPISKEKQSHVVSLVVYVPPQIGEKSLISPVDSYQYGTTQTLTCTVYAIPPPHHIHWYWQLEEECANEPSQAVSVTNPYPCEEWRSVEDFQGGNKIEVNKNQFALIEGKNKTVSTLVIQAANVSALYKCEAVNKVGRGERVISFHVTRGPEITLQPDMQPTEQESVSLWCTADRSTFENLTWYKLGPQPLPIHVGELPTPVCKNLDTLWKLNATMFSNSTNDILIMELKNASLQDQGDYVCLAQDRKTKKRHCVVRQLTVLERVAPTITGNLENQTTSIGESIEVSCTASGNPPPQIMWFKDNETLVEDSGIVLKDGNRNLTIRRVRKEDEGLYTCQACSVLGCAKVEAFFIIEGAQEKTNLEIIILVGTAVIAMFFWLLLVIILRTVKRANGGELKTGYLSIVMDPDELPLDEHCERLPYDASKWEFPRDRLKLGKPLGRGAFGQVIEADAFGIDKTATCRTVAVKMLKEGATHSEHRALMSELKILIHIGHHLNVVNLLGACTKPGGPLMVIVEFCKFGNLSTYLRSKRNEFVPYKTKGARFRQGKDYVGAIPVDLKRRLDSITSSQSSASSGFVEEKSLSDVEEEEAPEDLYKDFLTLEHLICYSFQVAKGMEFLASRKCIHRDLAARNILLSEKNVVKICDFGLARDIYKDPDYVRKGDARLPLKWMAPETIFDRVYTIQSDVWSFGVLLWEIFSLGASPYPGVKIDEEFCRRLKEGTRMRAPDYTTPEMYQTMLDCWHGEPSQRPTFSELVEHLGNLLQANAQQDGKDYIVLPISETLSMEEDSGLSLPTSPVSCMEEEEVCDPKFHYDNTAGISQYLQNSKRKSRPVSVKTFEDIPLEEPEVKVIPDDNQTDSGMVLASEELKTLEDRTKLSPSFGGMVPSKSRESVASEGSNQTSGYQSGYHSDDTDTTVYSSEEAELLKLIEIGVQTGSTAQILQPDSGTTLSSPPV

Molecule: methyl-β-cyclodextrin [MβCD]
- VEGFR-2 activation in response to VEGF in Prx II knockdown cells [1]: restored VEGFR-2 activation

Molecule: 5′-GCAUCAACUUGCAGAAAGAUU-3′ [caveolin-1 siRNA]
- VEGFR-2 activation in response to VEGF in Prx II knockdown cells [1]: no longer affected by the Prx II knockdown

Molecule: O[C@H](CS)[C@H](O)CS (racemic) [DTT, dithiothreitol]
- RTK activation abolished by Prx II knockdown or H2O2 treatment ([2]; VEGFR-2 immunoprecipitated from HAECs, incubated 10 minutes): fully restored

Molecule: OO [H2O2, hydrogen peroxide]
- VEGF-dependent induction of VEGFR-2 RTK activation after pretreatment ([2]; HAECs pretreated at various concentrations): suppressed VEGF-dependent induction of VEGFR-2 RTK activation in a dose-dependent manner
- hyperoxidation of 2-cys Prxs ([3]; micromolar concentrations up to 100 μM, 10 minutes): did not induce hyperoxidation
- hyperoxidation of 2-cys Prxs ([3]; millimolar concentration (1 mM)): only slightly induced the hyperoxidation of Prx I and Prx III, but not Prx II

Molecule: Cc1cc(C)c(/C=C2\C(=O)Nc3ccccc32)[nH]1 [SU5416]
- tube formation by VEGFR-2 WT and C1206S mutant [4]: completely blocked

Molecule: VEGF
- increase of ROS on VEGF treatment ([5]; control HAECs): two-fold

Molecule: 5′-GUCAACAUCCAGCUGUACC-3′ [NOX4 siRNA]
- level of ROS/H2O2 elevated by the Prx II knockdown [5]: background level
- VEGFR-2 activation in response to VEGF in Prx II knockdown cells [1]: completely rescued

B1: catalase: polyethylene glycol (PEG)-conjugated catalase, an enzyme that reduces H2O2 to H2O (protein, UniProt P00432 2-527, looked up)
Catalase: ADNRDPASDQMKHWKEQRAAQKPDVLTTGGGNPVGDKLNSLTVGPRGPLLVQDVVFTDEMAHFDRERIPERVVHAKGAGAFGYFEVTHDITRYSKAKVFEHIGKRTPIAVRFSTVAGESGSADTVRDPRGFAVKFYTEDGNWDLVGNNTPIFFIRDALLFPSFIHSQKRNPQTHLKDPDMVWDFWSLRPESLHQVSFLFSDRGIPDGHRHMNGYGSHTFKLVNANGEAVYCKFHYKTDQGIKNLSVEDAARLAHEDPDYGLRDLFNAIATGNYPSWTLYIQVMTFSEAEIFPFNPFDLTKVWPHGDYPLIPVGKLVLNRNPVNYFAEVEQLAFDPSNMPPGIEPSPDKMLQGRLFAYPDTHRHRLGPNYLQIPVNCPYRARVANYQRDGPMCMMDNQGGAPNYYPNSFSAPEHQPSALEHRTHFSGDVQRFNSANDDNVTQVRTFYLKVLNEEQRKRLCENIAGHLKDAQLFIQKKAVKNFSDVHPEYGSRIQALLDKYNEEKPKNAVHTYVQHGSHLSAREKANL
modifications: PEG
notes: polyethylene glycol (PEG)-conjugated catalase, an enzyme that reduces H2O2 to H2O
- level of ROS/H2O2 elevated by the Prx II knockdown [5]: background level
- VEGF-dependent tyrosine phosphorylation ([1]; HAECs pretreated with PEG-catalase, increasing doses, 18 hours): gradually decreased
